Test results as given in paper PMC11729428, “New Potent Inhibitor of Transforming Growth Factor-Beta (TGFβ) Signaling that is Efficacious against Microsatellite Stable Colorectal Cancer Metastasis in Combination with Immune Checkpoint Therapy in Mice” (ACS Pharmacology & Translational Science, 2024).
Where two headings read alike, the source gives them in different places.

Key:
[1] = parameters: method as in PMID 24786585; conditions: rats (♀ SD), oral, 10 mg/kg ref 18; cited from earlier work
TGFBR2 = molecular target: T1, TGFBR2 (Homo sapiens, UniProt P37173); parameters: method as in earlier work; conditions: reported data ref 15; read-out: Binding constant (Kd) TGFBR2; cited from earlier work
T1 construct: purchased Eurofins/DiscoveryX (KINOMEscan service)
T1 sequence (P37173 23-567): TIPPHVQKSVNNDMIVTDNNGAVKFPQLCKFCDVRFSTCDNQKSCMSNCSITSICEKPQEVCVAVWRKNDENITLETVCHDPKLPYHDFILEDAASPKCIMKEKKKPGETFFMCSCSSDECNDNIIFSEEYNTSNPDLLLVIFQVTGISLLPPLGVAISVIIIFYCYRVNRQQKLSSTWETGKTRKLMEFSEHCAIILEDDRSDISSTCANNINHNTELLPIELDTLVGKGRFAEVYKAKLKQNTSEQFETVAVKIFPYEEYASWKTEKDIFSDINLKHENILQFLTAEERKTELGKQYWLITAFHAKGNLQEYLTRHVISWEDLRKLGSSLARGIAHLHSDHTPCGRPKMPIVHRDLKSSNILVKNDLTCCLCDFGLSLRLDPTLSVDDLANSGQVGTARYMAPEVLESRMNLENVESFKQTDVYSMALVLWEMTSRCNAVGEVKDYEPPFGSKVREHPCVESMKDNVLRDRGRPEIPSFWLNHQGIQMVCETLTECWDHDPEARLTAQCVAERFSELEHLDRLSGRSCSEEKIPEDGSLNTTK

[2] = system: mouse tumor organoids (MTOs), CRC liver metastases; parameters: method as in PMID 29443964; conditions: murine CRC liver metastasis model ref 5; cited from earlier work
ACVR2B = molecular target: T2, ACVR2B (Homo sapiens, UniProt Q13705); parameters: method as in earlier work; conditions: reported data ref 15; read-out: Binding constant (Kd) ACVR2B; cited from earlier work
T2 construct: purchased Eurofins/DiscoveryX (KINOMEscan service)
T2 sequence (Q13705 19-512): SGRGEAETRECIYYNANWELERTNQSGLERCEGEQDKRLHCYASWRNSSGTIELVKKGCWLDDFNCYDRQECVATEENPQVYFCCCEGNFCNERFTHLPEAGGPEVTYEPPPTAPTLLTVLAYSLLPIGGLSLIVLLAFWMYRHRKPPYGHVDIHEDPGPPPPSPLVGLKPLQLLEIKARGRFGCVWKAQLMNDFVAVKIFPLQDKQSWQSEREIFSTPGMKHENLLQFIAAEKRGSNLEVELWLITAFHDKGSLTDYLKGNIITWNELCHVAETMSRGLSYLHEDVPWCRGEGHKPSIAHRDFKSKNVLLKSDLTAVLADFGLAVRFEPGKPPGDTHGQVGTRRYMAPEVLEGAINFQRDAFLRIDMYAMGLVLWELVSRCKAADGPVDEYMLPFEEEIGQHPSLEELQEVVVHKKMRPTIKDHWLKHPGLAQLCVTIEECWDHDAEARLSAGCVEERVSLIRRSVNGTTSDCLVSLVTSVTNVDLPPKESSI

ALK6 (BMPR1B) = molecular target: T3, ALK6 (BMPR1B) (Homo sapiens, UniProt O00238); parameters: method as in earlier work; conditions: reported data ref 15; read-out: Binding constant (Kd) ALK6 (BMPR1B); cited from earlier work
T3 construct: purchased Eurofins/DiscoveryX (KINOMEscan service)
T3 sequence (O00238 14-502): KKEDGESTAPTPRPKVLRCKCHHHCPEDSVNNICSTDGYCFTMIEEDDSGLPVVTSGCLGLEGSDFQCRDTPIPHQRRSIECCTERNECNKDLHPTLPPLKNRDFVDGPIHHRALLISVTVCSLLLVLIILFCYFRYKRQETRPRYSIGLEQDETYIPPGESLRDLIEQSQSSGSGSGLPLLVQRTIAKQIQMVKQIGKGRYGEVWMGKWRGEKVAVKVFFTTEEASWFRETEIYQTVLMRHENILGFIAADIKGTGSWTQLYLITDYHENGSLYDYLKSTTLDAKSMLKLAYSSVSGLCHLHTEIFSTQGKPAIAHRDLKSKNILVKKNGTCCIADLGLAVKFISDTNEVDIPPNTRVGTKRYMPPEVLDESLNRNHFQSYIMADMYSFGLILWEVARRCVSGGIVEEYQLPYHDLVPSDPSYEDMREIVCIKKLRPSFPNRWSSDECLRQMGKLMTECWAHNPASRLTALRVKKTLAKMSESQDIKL

ALK4 (ACVR1B) = molecular target: T4, ALK4 (ACVR1B) (Homo sapiens, UniProt P36896); conditions: reported data ref 15, read-out: Binding constant (Kd) ALK4 (ACVR1B), cited from earlier work
T4 sequence (P36896 24-505): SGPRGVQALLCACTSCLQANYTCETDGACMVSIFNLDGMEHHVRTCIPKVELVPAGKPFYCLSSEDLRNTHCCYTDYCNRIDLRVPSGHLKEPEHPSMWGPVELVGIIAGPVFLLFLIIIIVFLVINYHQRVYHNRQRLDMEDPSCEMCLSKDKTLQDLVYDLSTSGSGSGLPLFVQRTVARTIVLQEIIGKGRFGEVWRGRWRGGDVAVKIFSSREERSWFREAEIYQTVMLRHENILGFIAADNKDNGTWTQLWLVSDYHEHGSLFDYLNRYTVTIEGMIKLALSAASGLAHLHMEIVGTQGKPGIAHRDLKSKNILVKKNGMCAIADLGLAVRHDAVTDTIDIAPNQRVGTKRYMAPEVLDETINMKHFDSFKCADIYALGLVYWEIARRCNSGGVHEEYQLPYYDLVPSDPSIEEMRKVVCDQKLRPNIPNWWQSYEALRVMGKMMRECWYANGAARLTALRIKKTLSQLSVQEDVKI

[3] = Plasma protein binding by rapid equilibrium dialysis, mouse plasma
Method: 5. Methods for In vitro characterizations of HYL001 […]
Rapid equilibrium dialysis was performed in triplicates with a rapid equilibrium dialysis (RED) by Sai Life Sciences Lt. (Telangana, India). The RED device contains a dialysis membrane with a molecular weight cut -off […]
of 8,000 Da, separating two chambers for plasma and buffer, respectively. […]
were added to the plasma chamber, versus phosphate buffer saline (pH 7.4) to the buffer chamber. Dialysis was performed for 4 h with 100 RPM shaking at 37 °C. […]
compounds in plasma were either frozen immediately (T0 sample), or incubated at 37 °C for 4 h without dialysis (non-dialysed), respectively.
Following dialysis, an aliquot was removed from either chamber and diluted with equal volume of opposite matrix to nullify the matrix effect. Similarly, buffer was added to recovery and stability samples. Next, acetonitrile (containing internal standard, glipizide) was added to the mixtures for protein precipitation and vortexed for 5 minutes. The samples were centrifuged at 4000 RPM at 4 °C for 10 min and the supernatant was submitted for liquid chromatography mass spectrometry (LC-MS/MS) analysis. Samples were monitored for parent compound using multiple reaction monitoring (MRM) mode.
The peak area ratios (PAR, analyte versus internal standard) in plasma vs bufffer were used to determine the fraction of compound bound to plasma proteins. The following equation was used to determine the extent of plasma protein binding: percent free drug = 100% x (PARbuffer / PARplasma); percent bound drug = 100 - % free drug. Recovery was calculated as 100% x (PARplasma + PARbuffer)dialysed / (PARplasma)non-dialysed; stability as 100% x (PAR)non-dialysed / (PARplasma)frozen at T0. […]

hERG potassium channel = hERG potassium channel (Homo sapiens, UniProt Q12809); test: in vitro; conditions: CHO-K1 cells (hERG current)
hERG potassium channel, sequence (Q12809 whole entry): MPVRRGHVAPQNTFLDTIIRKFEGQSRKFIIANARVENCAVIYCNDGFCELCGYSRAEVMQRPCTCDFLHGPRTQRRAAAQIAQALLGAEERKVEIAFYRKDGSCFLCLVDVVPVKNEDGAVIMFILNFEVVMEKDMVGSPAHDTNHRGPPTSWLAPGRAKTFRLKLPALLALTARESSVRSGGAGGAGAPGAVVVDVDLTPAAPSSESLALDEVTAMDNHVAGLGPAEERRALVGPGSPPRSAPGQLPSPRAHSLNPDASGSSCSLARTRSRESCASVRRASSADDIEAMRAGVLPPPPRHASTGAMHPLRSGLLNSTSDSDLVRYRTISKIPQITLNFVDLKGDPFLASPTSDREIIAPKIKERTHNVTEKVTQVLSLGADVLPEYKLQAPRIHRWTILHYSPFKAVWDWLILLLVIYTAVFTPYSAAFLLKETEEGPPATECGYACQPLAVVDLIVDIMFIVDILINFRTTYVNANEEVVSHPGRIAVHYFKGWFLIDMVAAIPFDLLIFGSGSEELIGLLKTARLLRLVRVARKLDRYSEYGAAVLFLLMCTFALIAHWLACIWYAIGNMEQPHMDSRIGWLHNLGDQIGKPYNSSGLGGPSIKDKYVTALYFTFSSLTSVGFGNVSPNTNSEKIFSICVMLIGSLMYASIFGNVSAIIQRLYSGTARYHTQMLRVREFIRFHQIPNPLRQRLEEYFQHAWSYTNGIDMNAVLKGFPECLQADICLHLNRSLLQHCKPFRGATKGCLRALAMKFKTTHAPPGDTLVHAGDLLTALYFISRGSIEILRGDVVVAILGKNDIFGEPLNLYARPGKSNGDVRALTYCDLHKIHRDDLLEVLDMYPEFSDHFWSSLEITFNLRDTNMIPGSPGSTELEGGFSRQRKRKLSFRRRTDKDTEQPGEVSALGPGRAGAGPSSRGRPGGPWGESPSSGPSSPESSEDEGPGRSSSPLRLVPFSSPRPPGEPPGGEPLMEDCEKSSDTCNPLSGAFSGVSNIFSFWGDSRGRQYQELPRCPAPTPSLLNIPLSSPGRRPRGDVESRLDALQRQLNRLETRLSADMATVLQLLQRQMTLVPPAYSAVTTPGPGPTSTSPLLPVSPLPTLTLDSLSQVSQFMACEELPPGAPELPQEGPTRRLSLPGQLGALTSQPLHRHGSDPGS
Method: clamp (Eurofins, Celle L’Evescault, France) on CHO -K1 cells. The tail current amplitude, induced by a one
second test pulse to -40 mV after a two second pulse to +20 mV, was measured before and aft er drug incubation
and expressed as % inhibition.

[4] = system: Salmonella typhimurium strains TA98, TA100, TA1535 and TA1537; test: Ames test; format: cell-based
Method: The mutagenic potential of HYL001 was evaluated by the Ames test, assessing its ability to induce reverse mutations in the histidine operon of Salmonella typhimurium strains that allow for detection of both substitution mutations (TA100 and TA1535) and frameshift mutations (TA98 and TA1537). The mutagenic potential of HYL001 was tested at 6 concentrations (semilog 1–320 μg/mL) alone or in the presence of liver S9 fractions. […]
The Ames test was performed at Xenomatrix (Allschwil, Switzerland). Bacteria from the S. typhimurium […]
negative control, for 90 minutes in medium containing sufficient histidine to support approximately two cell divisions. After exposure, the cultures were diluted in pH indicator medium lacking histidine or tryptophan and aliquoted into 48 wells of a 384-well plate. Within two days, cells that have undergone reversion to amino acid prototrophy grow into colonies. The number of wells containing revertant colonies were counted by pH indicator colour change for each dose and compared to a solvent (negative) control. A dose dependent increase in the number of revertant colonies upon exposure to HYL001 would have indicated mutagenicity.

Which results are given for `Cc1cccc(-c2[nH]c(CNc3ccccc3F)nc2-c2ccc3ncnn3c2)n1` [vactosertib, N -((4-([1,2,4]Triazolo[1,5-a]Pyridin-6-Yl)-5-(6-Methylpyridin-2-Yl)-1 H -Imidazole-2-Yl)Methyl)-2-Fluoroaniline]?
AUCinf [1]: 1426 ng·h/mL; Cmax [1]: 1620 ng/mL; T1/2 [1]: 2.5 h

Which results are given for `Cc1cccc(-c2nn3c(c2-c2ccnc4ccc(C(N)=O)cc24)CCC3)n1` [galunisertib]?
Kd (TGFBR2): 0.208 µM; Efficacious murine dose [2]: 720–800 mg/kg twice daily (BID); Kd (ACVR2B): 0.694 µM; Kd (ALK6 (BMPR1B)): 0.471 µM; Kd (ALK4 (ACVR1B); listed as Galunisertib): 0.0777 µM; Kd (ALK4 (ACVR1B)): ~0.078 µM

Which “% Compound remaining at 4 hrs” value ([3]; mice plasma, 37 °C) does the source give for `Cc1cccc(-c2nn3c(c2-c2ccnc4ccc(O)cc24)CCC3)n1` [HYL001, 4-(2-(6-Methylpyridin-2-yl)-5,6-dihydro-4H-pyrrolo[1,2-b]pyrazol-3-yl)quinolin-6-ol] here?
The value was 113.1%.

And the recovery at 4 h, 5 µM ([3]; mouse, plasma (rapid equilibrium dialysis device), pH 7.4)?
Its recovery at 4 h, 5 µM is 112%.

What about the fraction unbound at 4 h, 5 µM ([3]; mouse, plasma, pH 7.4) of the same compound?
The fraction unbound at 4 h, 5 µM was 0.048.

What about the inhibition at 3.7 µM (hERG potassium channel) of the same compound?
Its inhibition at 3.7 µM is 1.8%.

And the inhibition at 11.1 µM (hERG potassium channel)?
The inhibition at 11.1 µM was 8.4%.

And the inhibition at 33.3 µM (hERG potassium channel)?
Its inhibition at 33.3 µM is 22.8%.

What about the “Positive mutagenic responses (Ames test)” value ([4]; 6 concentrations 1–320 μg/mL, alone or with liver S9, all strains) of the same compound?
The value was “No positive mutagenic responses”.

And the Dose dependency ([4]; TA98, w/o S9)?
Its Dose dependency is “No”.

What about the Mutagenic data points ([4]; TA98, w/o S9) of the same compound?
Its Mutagenic data points is “No”.

And the Dose dependency ([4]; TA98, with S9)?
Its Dose dependency is “No”.

And the Mutagenic data points ([4]; TA98, with S9)?
Its Mutagenic data points is “No”.

And the Dose dependency ([4]; TA100, w/o S9)?
Its Dose dependency is “No”.

And the Mutagenic data points ([4]; TA100, w/o S9)?
The Mutagenic data points was “No”.

And the Dose dependency ([4]; TA100, with S9)?
The Dose dependency was “No”.

And the Mutagenic data points ([4]; TA100, with S9)?
The Mutagenic data points was “No”.

And the Dose dependency ([4]; TA1535, w/o S9)?
Its Dose dependency is “No”.

What about the Mutagenic data points ([4]; TA1535, w/o S9) of the same compound?
The Mutagenic data points was “No”.

And the Dose dependency ([4]; TA1535, with S9)?
The Dose dependency was “No”.

What about the Mutagenic data points ([4]; TA1535, with S9) of the same compound?
Its Mutagenic data points is “No”.

And the Dose dependency ([4]; TA1537, w/o S9)?
Its Dose dependency is “No”.

What about the Mutagenic data points ([4]; TA1537, w/o S9) of the same compound?
The Mutagenic data points was “No”.

And the Dose dependency ([4]; TA1537, with S9)?
The Dose dependency was “No”.

And the Mutagenic data points ([4]; TA1537, with S9)?
Its Mutagenic data points is “No”.
